Consider seven compounds from patent publication US5272143A, “6-oxoazepinoindole compounds, and pharmaceutical compositions containing them” (Kali-Chemie Pharma GmbH, priority 1991, dated 1993).

One series concerns stomach motility. In words: Determination of effect on stomach motility in anaesthetised rats. It is filed as in vivo, rats of the SIV 50 strain. To be noted: rat. The protocol: 2. Determination of effect on stomach motility in anaesthetised rats.
For the tests, groups of 5-6 fasting rats of the SIV 50 strain having a body weight of 220-290 g were used in each test which had been anaesthetised with a ketamine/xylazine mixture. The animals received an initial dose of 1 ml/kg of a solution of 50 mg/ml of ketamine and 10 mg/ml of xylazine administered i.p., and the anaesthetic level was maintained by a continuous intraperitoneal infusion of the same solution at an infusion rate of 1 ml/kg/h. The animals were tracheotomised and laparotomised. After applying a pylorus ligature, a stomach tube was inserted into the stomach and connected at the other end by means of a three-way tap to a calibrated pressure transducer (Statham Element P 23 ID). A corresponding tube was inserted rectally 8-9 cm into the colon and likewise connected in the same manner to a calibrated pressure transducer of the same type. The stomachs of the animals were then filled with 2 ml of water via the tube. After a stabilisation phase of 40 min, the pressure variations in the stomach and colon were measured over a test period of 2 hours and 20 minutes, and the amplitudes produced by the phasic gastric motility were recorded by means of a Watanabe multirecorder (MC 6621). The geometric mean values of the amplitudes during the first 20 min were determined for the individual animals and used as control amplitude values. After the first 20 min, the test substances were administered i.p. The maximum increase in amplitude (=mean value of the 20 minute period in which the highest increase in amplitude occurs) caused by the test substances was determined in % increase of the control amplitude values determined before administration of the test substances, and the mean value for the animal group is given in the following Table A. In addition, the maximum increase in the mean gastric tone caused by the test substances during the test period compared with the mean gastric tone existing before administration of the test substances was recorded. This increase in gastric tone is given in Table A in cm of H2 O (mean value of the animal group). In the colon, the test substances cause amplitude damping.

The test system of a further series is Mouse. The arrangement: species or system Male mice. The note with it: in vivo, po, 4320 min. The protocol:
1. Determination of the minimum toxic dose.
Male mice of 20-25 g weight are administered maximum doses of 300 mg/kg of the test substance p.o. The animals were carefully observed for 3 hours for symptoms of toxicity. Over a period of 72 hours after administration, all symptoms and cases of death are additionally recorded. Concomitant symptoms are likewise observed and recorded. If death or strong toxic symptoms are observed, further mice are administered increasingly lower doses until toxic symptoms no longer occur. The lowest dose which causes death or strong toxic symptoms is given in the following Table A as the minimum toxic dose. The example numbers given in Table A relate to the subsequent preparation examples.

A further series has as its system 5-HT1-like receptors. The series can be described thus: Serotonin-agonistic contractions in segments of the isolated basilar artery of the pig (in vitro antimigraine activity). The note with it: for Maximum Contraction Produced by Test Substance Relative to Maximum Contraction Produced by Serotonin = 1 / relative potency calculated as pD2 of the test substance relative to the pD2 of serotonin determined on the same piece of artery / pD2 = neg. log of Concentration Which Produces 50% of Maximum Contraction: porcine basilar artery, in vitro; for pD2 = neg. log of Concentration Which Produces 50% of Maximum Contraction: concentrations in mol/l. The class given is cell-based. The text has this:
3. Investigation of Properties Indicating Antimigraine Activity of Test Substance in vitro. Migraine pains are associated with excessive dilation of the cranial vascular system. […] This property of the test substances can be used as a basis for predicting anti-migraine activity. The serotoninagonistic activity of the substances on 5-HT1 -like receptors can be determined in vitro in isolated organ strips from the basilar artery of a pig. […] Such a contraction is also produced by the test substances and is a good index of the antimigraine activity of the substances. The tests are carried out according to the method described by van Charldorp et al. (Naunyn-Schmiedeb. Arch. Pharmacol. supp. to volume 341, R89, 1990 and Eur. J. Pharmacol. 183, 1106-1107, 1990). Experimental description of the in vitro determination of the effect inducing serotonin-agonistic contractions in segments of the isolated basilar artery of the pig. For the experiment, helical segments of the basilar artery of pigs were used which were isolated from pig brains supplied by a slaughterhouse. Each strip was fixed in an organ bath consisting of 10 ml of a modified Tyrode solution such that the tissue was under a tension of 10 mN. […] The solution was modified by adding 10^-8 mol/l of indomethacin, 10^-7 mol/l of atropine and 10^-7 mol/l of propanolol and adjusted to pH=7.4. The bath was aerated with a mixture of 95% O2 and 5% CO2. After an equilibration phase of 1 hour a contraction of the tissue was produced twice, in each case by addition of serotonin at a concentration of 10^-5 mol/l and the preparation was subsequently washed out. The contraction effect was then measured with increasing serotonin concentration and a cumulative concentration effect curve for serotonin was drawn up. A cumulative concentration effect curve was drawn up for the test substance on the same preparation (after washing out again). In the following Table B, the maximum contraction caused by the test substances in relationship to the maximum contraction produced by serotonin, and the negative logarithm of that concentration of the test substance which produces 50% of the maximum contraction which can be produced by this test substance (=pD2), and the relative potency calculated as pD2 of the test substance relative to the pD2 of serotonin determined on the same piece of artery are given.

The mark [1] stands for this setting: ip, 10 μmole/kg i.p., read-out: Maximum Amplitude Increase (increase in % of control amplitude).

Structures can show the parent of a compound that is named as a salt. A value given as a limit tells only on which side of the number the result lay.

As for `NCC1CNC(=O)c2cccc3[nH]cc1c23` (racemic) [Example 1, 3-Aminomethyl-3,4,5,6-tetrahydro-6-oxo-1H-azepino[5,4,3-cd]indole], in the series with stomach motility (setting [1]), the change in vivo at 10 µmol/kg was 449%. The “Gastric Tone Increase” value in the series with stomach motility (10 μmole/kg i.p.) came to 7.4 cm H2O. In addition, the “Minimum Toxic Dose” value with Mouse is listed as > 300 mg/kg. Also, in the series with 5-HT1-like receptors, the “Maximum Contraction Produced by Test Substance Relative to Maximum Contraction Produced by Serotonin = 1” value stood at 0.8, the “relative potency calculated as pD2 of the test substance relative to the pD2 of serotonin determined on the same piece of artery” value (“relative potency calculated as pD2” below) is 0.132 and the “pD2 = neg. log of Concentration Which Produces 50% of Maximum Contraction” value was 6.5.
Take `CNCC1CNC(=O)c2cccc3[nH]cc1c23` (racemic) [Example 4, 3-Methylaminomethyl-3,4,5,6-tetrahydro-6-oxo-1H-azepino[5,4,3-cd]indole]: the change in vivo at 100 µmol/kg in the series with stomach motility (ip, 100 μmole/kg i.p., read-out: Maximum Amplitude Increase (increase in % of control amplitude)) amounted to 532%. Besides, the “Gastric Tone Increase” value in the series with stomach motility (100 μmole/kg i.p.) is 9.0 cm H2O. For the same compound, the “Minimum Toxic Dose” value in the series with Mouse was > 300 mg/kg. Further, in the series on 5-HT1-like receptors, the “Maximum Contraction Produced by Test Substance Relative to Maximum Contraction Produced by Serotonin = 1” value came out at 0.6, the “relative potency calculated as pD2” value was 0.208 and the “pD2 = neg. log of Concentration Which Produces 50% of Maximum Contraction” value is 6.8.
Consider `NC[C@@H]1CNC(=O)c2cccc3[nH]cc1c23` [Example 1a, 3R(+)-3-Aminomethyl-3,4,5,6-tetrahydro-6-oxo-1H-azepino[5,4,3-cd]indole], for which, in the series on 5-HT1-like receptors, the “Maximum Contraction Produced by Test Substance Relative to Maximum Contraction Produced by Serotonin = 1” value is 1.0, the “relative potency calculated as pD2” value is reported as 0.172 and the “pD2 = neg. log of Concentration Which Produces 50% of Maximum Contraction” value stood at 6.7.
For the compound `CNC[C@@H]1CNC(=O)c2cccc3[nH]cc1c23` [Example 4a, 3R(+)-3-methylaminomethyl-3,4,5,6-tetrahydro-6-oxo-1H-azepino[5,4,3-cd]indole hydrochloride], in the series on 5-HT1-like receptors, the “Maximum Contraction Produced by Test Substance Relative to Maximum Contraction Produced by Serotonin = 1” value turned out to be 0.6, the “relative potency calculated as pD2” value was 0.354 and the “pD2 = neg. log of Concentration Which Produces 50% of Maximum Contraction” value was 7.0.
Regarding `Cn1cc2c3c(cccc31)C(=O)NCC2CN` (stereo not shown) [Example 9, 1-methyl-3-aminomethyl-3,4,5,6-tetrahydro-6-oxo-1H-azepino[5,4,3-cd]indole], in the series on stomach motility (setting [1]), the change in vivo at 10 µmol/kg came to 334%. Also, the “Gastric Tone Increase” value with stomach motility (10 μmole/kg i.p.) worked out at 5.5 cm H2O. For the same compound, the “Minimum Toxic Dose” value with Mouse was > 300 mg/kg. In the series with 5-HT1-like receptors, the “Maximum Contraction Produced by Test Substance Relative to Maximum Contraction Produced by Serotonin = 1” value is given as 0.5, the “relative potency calculated as pD2” value is reported as 0.124 and the “pD2 = neg. log of Concentration Which Produces 50% of Maximum Contraction” value was found to be 6.4.
Take `COCN1CC(CN)c2c[nH]c3cccc(c23)C1=O` (stereo not shown) [Example 12, 3-aminomethyl-5-methoxymethyl-3,4,5,6-tetrahydro-6-oxo-1H-azepino[5,4,3-cd]indole]: in the series on 5-HT1-like receptors, the “Maximum Contraction Produced by Test Substance Relative to Maximum Contraction Produced by Serotonin = 1” value is 0.7, the “relative potency calculated as pD2” value was 0.050 and the “pD2 = neg. log of Concentration Which Produces 50% of Maximum Contraction” value worked out at 6.0.
For `NCCc1c[nH]c2ccc(O)cc12` [Serotonin, reference compound], in the series with 5-HT1-like receptors (isolated basilar artery), the “action on 5-HT1-like receptors in the basilar artery (contraction)” value was “concentration -dependent contraction”.
